Measurements published in publication doi:10.64898/2025.12.09.693205v1 (biorxiv, 2025).

Biological target: T1, UBE2N (Homo sapiens, UniProt P61088)
T1 sequence (P61088 1-152): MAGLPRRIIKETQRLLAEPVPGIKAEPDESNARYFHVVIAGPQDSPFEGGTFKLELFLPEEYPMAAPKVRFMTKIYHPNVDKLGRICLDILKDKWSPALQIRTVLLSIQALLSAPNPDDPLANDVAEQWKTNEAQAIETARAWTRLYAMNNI
Assay: microscale thermophoresis
Assay type: binding
Conditions: PBS pH 7.4, 0.05% Tween20; labelled protein; MST-on time 9-10 s; n = 3

Kd: 35.3 ± 6.3 µM
Structure (SMILES): COC(=O)c1cc2c(cn1)[nH]c1ccc(O)cc12 [Variabine B]
